This note sets out measurements from PMC3272785 (2011).

The target of assay [1] is T1, yeast cytosine deaminase (yCD) (Saccharomyces cerevisiae, UniProt Q12178, E64D).
T1 sequence (Q12178 6-158 E64D): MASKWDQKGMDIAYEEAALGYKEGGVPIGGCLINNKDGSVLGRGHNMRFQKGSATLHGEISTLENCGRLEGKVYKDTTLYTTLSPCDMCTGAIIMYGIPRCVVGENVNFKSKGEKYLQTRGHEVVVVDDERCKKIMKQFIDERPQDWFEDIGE
Description: radiometric 5FC deamination inhibition assay. It is filed as biochemical.

For assay [2], the target named is T2, yeast cytosine deaminase (yCD) (Saccharomyces cerevisiae, UniProt Q12178).
T2 sequence (Q12178 6-158): T1 sequence (Q12178 6-158 E64D)
In words: fluorometric titration. Format: binding.

As for `Oc1ncc(F)cn1` [5FPy, 5-fluoro-1H-pyrimidin-2-one], affinity in assay [1] was put at a Ki of 1060 ± 60 µM. The Kd in assay [2] was found to be 0.65 ± 0.08 µM.
